Tests used:
FLT3 N841I = target: T1, FLT3 N841I (Homo sapiens, UniProt P36888, N841I); assay: DiscoverX KINOMEscan active site-directed competition binding, FLT3 N841I; conditions: no ATP
T1 sequence (P36888 27-993 N841I): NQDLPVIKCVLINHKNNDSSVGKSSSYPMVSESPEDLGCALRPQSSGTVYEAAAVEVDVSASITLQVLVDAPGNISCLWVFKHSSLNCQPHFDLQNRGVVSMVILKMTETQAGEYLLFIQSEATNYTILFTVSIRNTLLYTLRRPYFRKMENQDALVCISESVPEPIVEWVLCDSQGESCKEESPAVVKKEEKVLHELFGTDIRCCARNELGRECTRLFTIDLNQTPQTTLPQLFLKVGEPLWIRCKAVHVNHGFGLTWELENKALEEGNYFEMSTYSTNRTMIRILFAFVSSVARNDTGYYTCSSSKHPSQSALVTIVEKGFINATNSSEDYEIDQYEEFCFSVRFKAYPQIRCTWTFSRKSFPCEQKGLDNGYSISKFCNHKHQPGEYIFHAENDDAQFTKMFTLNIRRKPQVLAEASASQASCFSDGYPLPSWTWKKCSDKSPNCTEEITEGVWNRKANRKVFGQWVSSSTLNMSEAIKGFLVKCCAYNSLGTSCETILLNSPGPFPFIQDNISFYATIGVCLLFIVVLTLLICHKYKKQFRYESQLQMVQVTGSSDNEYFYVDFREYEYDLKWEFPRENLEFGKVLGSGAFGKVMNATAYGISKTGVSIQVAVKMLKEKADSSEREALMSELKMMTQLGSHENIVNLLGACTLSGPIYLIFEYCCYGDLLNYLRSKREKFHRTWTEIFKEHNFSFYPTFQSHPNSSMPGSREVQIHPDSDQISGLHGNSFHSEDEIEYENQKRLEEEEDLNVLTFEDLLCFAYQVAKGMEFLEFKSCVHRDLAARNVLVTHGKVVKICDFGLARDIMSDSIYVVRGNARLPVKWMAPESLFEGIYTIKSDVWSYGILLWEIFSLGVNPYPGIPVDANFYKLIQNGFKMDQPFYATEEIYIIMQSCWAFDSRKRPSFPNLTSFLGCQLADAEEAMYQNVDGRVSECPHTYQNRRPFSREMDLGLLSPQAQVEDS
From the text: (§1) Kinase binding data were obtained for various exemplary compounds prepared according to Examples 1-8 using the DiscoverX KINOMEscan® active site-directed competition binding site-directed assay protocol described below. […] As a result, the data report thermodynamic interaction affinities (Kd values), rather than IC50 values that are dependent on ATP concentrations. The assay uses a DNA-tagged version of the protein kinase, and an immobilized ligand bound to a solid support. Compounds that directly or indirectly prevent kinase binding to the immobilized ligand reduce the amount of kinase captured on the solid support, which is detected using an ultra-sensitive qPCR method. Affinity constants reported from the assay have been reported to be independent of the immobilized ligand used that is coupled to the solid support (See supplemental information in Fabian, M. A. et. al., (2005) Nat. Biotechnol. 23, 329-336; Wodicka, L. M. et. al., (2010) Chem. Biol. 17, 1241-1249.)
(§2) Kinase-tagged T7 phage strains were prepared in an E. coli host derived from the BL21 strain. E. coli were grown to log-phase and infected with T7 phage and incubated with shaking at 32 °C until lysis. The lysates were centrifuged and filtered to remove cell debris. The remaining kinases were produced in HEK-293 cells and subsequently tagged with DNA for qPCR detection. Streptavidin-coated magnetic beads were treated with biotinylated small molecule ligands for 30 minutes at room temperature to generate affinity resins for kinase assays. The liganded beads were blocked with excess biotin and washed with blocking buffer (SeaBlock (Pierce), 1% BSA, 0.05% Tween 20, 1 mM DTT) to remove unbound ligand and to reduce non-specific binding. […] Test compounds were prepared as 111x stocks in 100% DMSO. Kds were determined using an 11-point 3-fold compound dilution series with three DMSO control points. All compounds for Kd measurements are distributed by acoustic transfer (non-contact dispensing) in 100% DMSO. The compounds were then diluted directly into the assays such that the final concentration of DMSO was 0.9%. All reactions were performed in polypropylene 384-well plates. Each was a final volume of 0.02 mL. The assay plates were incubated at room temperature with shaking for 1 hour and the affinity beads were washed with wash buffer (1×PBS, 0.05% Tween 20). The beads were then re-suspended in elution buffer (1×PBS, 0.05% Tween 20, 0.5 μM nonbiotinylated affinity ligand) and incubated at room temperature with shaking for 30 minutes. The kinase concentration in the eluates was measured by qPCR. Binding constants (Kds) were calculated with a standard dose-response curve using the Hill equation. The Hill Slope was set to −1. Curves were fitted using a non-linear least square fit with the Levenberg-Marquardt algorithm.
as §1, with “9-12” for “1-8”
(§3) Kinase-tagged T7 phage strains were prepared in an E. coli host derived from the BL21 strain. […]

IRAK1 = IRAK1 (Homo sapiens, UniProt P51617); assay: DiscoverX KINOMEscan active site-directed competition binding, IRAK1; conditions: no ATP
From the text: as §1, §2
as §1, with “9-12” for “1-8”
as §3

IRAK1, sequence (P51617 whole entry): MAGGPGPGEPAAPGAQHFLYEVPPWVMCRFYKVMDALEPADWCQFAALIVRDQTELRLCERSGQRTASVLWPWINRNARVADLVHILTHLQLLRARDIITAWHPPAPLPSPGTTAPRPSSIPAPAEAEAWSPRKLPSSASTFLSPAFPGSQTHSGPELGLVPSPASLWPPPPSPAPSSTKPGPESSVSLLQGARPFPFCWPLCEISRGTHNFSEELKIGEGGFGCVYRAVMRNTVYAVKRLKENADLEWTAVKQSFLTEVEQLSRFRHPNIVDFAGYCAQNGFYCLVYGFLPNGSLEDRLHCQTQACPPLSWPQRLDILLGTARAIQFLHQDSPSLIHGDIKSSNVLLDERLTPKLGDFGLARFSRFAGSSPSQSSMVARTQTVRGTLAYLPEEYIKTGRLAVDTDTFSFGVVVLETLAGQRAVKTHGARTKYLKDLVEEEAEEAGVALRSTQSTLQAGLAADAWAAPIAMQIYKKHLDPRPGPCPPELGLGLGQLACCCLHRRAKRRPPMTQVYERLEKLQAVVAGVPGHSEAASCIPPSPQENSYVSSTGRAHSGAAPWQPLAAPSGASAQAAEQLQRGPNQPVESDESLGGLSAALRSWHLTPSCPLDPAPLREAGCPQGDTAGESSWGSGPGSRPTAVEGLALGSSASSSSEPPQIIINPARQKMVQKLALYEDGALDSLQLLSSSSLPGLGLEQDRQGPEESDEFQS

Kd (FLT3 N841I; Table 19) [nM] | Kd (IRAK1; Table 18) [nM] | Kd (FLT3 N841I; Table 13) [nM] | Kd (IRAK1; Table 12) [nM] | Structure (SMILES)
0.27 | 0.78 | – | – | COc1cn2ncc(-c3cncc(N[C@H]4CNCC[C@@H]4F)n3)c2nc1C1CC1 [Compound 12a, 6-(5-cyclopropyl-6-methoxypyrazolo[1,5-a]pyrimidin-3-yl)-N-((3S,4S)-4-fluoropiperidin-3-yl)pyrazin-2-amine]
– | – | < 0.17 | < 0.17 | COc1cn2ncc(-c3nc(N[C@H]4CNCC[C@@H]4F)c(C#N)cc3F)c2nc1C1CC1 [Compound 7, 6-(5-cyclopropyl-6-methoxypyrazolo[1,5-a]pyrimidin-3-yl)-5-fluoro-2-(((3S,4S)-4-fluoropiperidin-3-yl)amino)nicotinonitrile]
0.7 | 0.28 | – | – | COc1cn2ncc(-c3nc(N[C@H]4CNCC[C@@H]4F)ncc3F)c2nc1C(C)(C)O [Compound 6a, 2-(3-(5-fluoro-2-(((3S,4S)-4-fluoropiperidin-3-yl)amino)pyrimidin-4-yl)-6-methoxypyrazolo[1,5-a]pyrimidin-5-yl)propan-2-ol]
– | – | 0.79 | 0.27 | COc1cn2ncc(-c3nc(N[C@H]4CNCC[C@@H]4F)c(F)cc3F)c2nc1C(C)(C)O [Compound 13, 2-(3-(3,5-difluoro-6-(((3S,4S)-4-fluoropiperidin-3-yl)amino)pyridin-2-yl)-6-methoxypyrazolo[1,5-a]pyrimidin-5-yl)propan-2-ol]
0.62 | 0.53 | – | – | COc1cn2ncc(-c3ccnc(N[C@H]4CNCC[C@@H]4F)n3)c2nc1C1CC1 [Compound 7a, 4-(5-cyclopropyl-6-methoxypyrazolo[1,5-a]pyrimidin-3-yl)-N-((3S,4S)-4-fluoropiperidin-3-yl)pyrimidin-2-amine]
< 0.17 | < 0.17 | – | – | COc1cn2ncc(-c3nc(N[C@H]4CNCC[C@@H]4F)ncc3F)c2nc1C1CC1 [Compound 15a, 4-(5-cyclopropyl-6-methoxypyrazolo[1,5-a]pyrimidin-3-yl)-5-fluoro-N-((3S,4S)-4-fluoropiperidin-3-yl)pyrimidin-2-amine]
– | – | 0.48 | 0.81 | COc1cn2ncc(-c3nc(N[C@H]4CNCC[C@@H]4F)c(C#N)cc3F)c2nc1C(C)(C)O [Compound 10, 5-fluoro-2-(((3S,4S)-4-fluoropiperidin-3-yl)amino)-6-(5-(2-hydroxypropan-2-yl)-6-methoxypyrazolo[1,5-a]pyrimidin-3-yl)nicotinonitrile]
< 0.17 | < 0.17 | – | – | COc1cn2ncc(-c3nc(N[C@@H]4CCCNC4)ncc3F)c2nc1C1CC1 [Compound 14a, (R)-4-(5-cyclopropyl-6-methoxypyrazolo[1,5-a]pyrimidin-3-yl)-5-fluoro-N-(piperidin-3-yl)pyrimidin-2-amine]
